In one assay the target is PvG6PD (Plasmodium vivax, UniProt A5K3M1). In words: PvG6PD enzyme inhibition assay (NADPH formation, absorbance 340 nm / fluorescence). It is filed as biochemical. The conditions noted are these: for IC50: read-out: IC50 on PvG6PD. The procedure:
The G6PD activity of PfGluPho variants was measured spectrophotometrically as described for the wt enzyme. Kinetic characterization of PvG6PD was performed using the same assay system at an Evolution 300 spectrophotometer (Thermo Scientific, Dreieich, Germany). In brief, the initial reduction of NADP^+ to NADPH by PvG6PD was monitored by measuring the absorbance at 340 nm. The 500 µL reaction mixture contained 200 µM NADP^+ and varying concentrations of PvG6PD in an assay buffer of 100 mM Tris–HCl, pH 8.0, 10 mM MgCl2, and 0.5 mM EDTA at 25 °C. The reaction was started by adding 800 µM G6P. The KM for NADP^+ was determined by titrating NADP^+ from 2 to 400 µM at 800 µM G6P; the KM for G6P was measured accordingly by titrating G6P from 2 to 1200 µM at 200 µM NADP^+. KM values were calculated using GraphPad Prism. Since the KM for G6P was considerably higher than the value measured for PfGluPho [14], a concentration of 800 µM G6P was defined as substrate saturation for PvG6PD.
To identify potential inhibitors of PvG6PD, compounds with already known effects on PfGluPho (ellagic acid and derivatives, ML304) were tested. Additionally, several compound libraries of the Helmholtz Center for Infection Research, Brunswick, were screened against PfGluPho using the high-throughput-compatible assay systems described in Preuss et al.. […] Based on structure-activity relationship studies, a set of new potential G6PD inhibitors (Fig. 8) was then synthesized and assessed. First, the IC50 values of the compounds were determined, followed by mechanistic characterization of the mode of action. To test for selectivity of the compounds, the IC50 values of the compounds on PvG6PD, PfGluPho, and hG6PD were determined in parallel.
All measurements were performed in 96-well plates, half area (Greiner Bio-One, Frickenhausen, Germany) using a Tecan Infinite M200 plate reader (Maennedorf, Switzerland). The compounds were dissolved in 100% DMSO and afterwards diluted in assay buffer to the required concentrations. Different compound concentrations were added to a mixture of enzyme and NADP^+ in assay buffer. Concentrations of substrates differed depending on the enzyme; an overview is given in the Additional file 4. The reaction was started by adding G6P, and the increase of NADPH was monitored by measuring the absorbance at 340 nm. To increase the sensitivity of the assay, some measurements were reproduced, detecting the fluorescence of NADPH at ex340/em460. […] A negative control containing no compound was defined as 0% inhibition; a positive control lacking the substrate G6P was defined as 100% inhibition. For evaluations using GraphPad Prism and Microsoft Excel, only a linear increase in absorbance/fluorescence was considered. For the mechanistic characterization of the compounds, either NADP^+ or G6P were titrated at different compound concentrations around the IC50, while keeping the second substrate in saturation. The initial slope was plotted as Michaelis–Menten curves and Lineweaver–Burk plots using GraphPad Prism; KM values and Vmax were calculated with GraphPad Prism software.

Assay [1] deals with P. falciparum 3D7[hGrx1-roGFP2] cytosolic glutathione-dependent redox potential. In words: Cytosolic glutathione redox sensor hGrx1-roGFP2, confocal live cell imaging (CLSM). It is filed as cell-based, Plasmodium falciparum. The conditions noted are these: for Oxidation of the hGrx1-roGFP2 sensor: comparable to 1 mM DIA. Here is the method:
A Leica confocal system TCS SP5 inverted microscope equipped with the objective HCX PL APO 63.0 × 1.30 GLYC 37 °C UV connected to a 37 °C temperature chamber was used. The argon laser power was set to 20%; scanning was performed at 400 Hz frequency and at a 512 × 512 pixel resolution. The smart gain and smart offset were 950 V and −0.9%, respectively. With a sequential scan, the hGrx1–roGFP2 probe was excited at 405 nm and at 488 nm and emission was detected at 500–550 nm. Laser intensity was adjusted to match the full dynamic range of the probe to the dynamic range of the detector (405 nm: 10%, 488 nm: 4%). […] The Leica LAS AF Lite software for fluorescence analysis was used. The 405/488 nm ratio was calculated. The graphs were plotted using the GraphPad Prism 5 software (San Diego, CA, USA). For live cell imaging, only parasites showing fluorescent signals at both 405 and 488 nm excitation and an intact host cell were chosen.
The effect of ML304 and the anti-malarial drugs ATS and CQ as reference drugs on P. falciparum were investigated in 4 h and 24 h incubation experiments. […] For 4 h experiments, trophozoite stage parasites (26–30 h) of 3D7^[hGrx1–roGFP2] and NF54^[hGrx1–roGFP2] (6–8% parasitaemia) were magnetically enriched (Miltenyi Biotec, Germany), counted by using a Neubauer hemocytometer (Brand GmbH, Germany), and returned to cell culture (at 2.0 × 10^4 trophozoites μL^−1) for at least 1 h to recover. 1.0 × 10^6 cells in 100 μL cell culture medium were placed into LoBind tubes (Eppendorf, Hamburg, Germany) for 4 h incubation experiments. The parasites were treated with ML304 at 1 μM, 50 μM, and 100 μM, or with the anti-malarial drugs ATS and CQ at approximately 50 × EC50 for 4 h under cell culture conditions. Subsequently, free thiol groups were blocked with 2 mM N-ethylmaleimide (NEM) for 15 min at 37 °C. For 24 h experiments, a 5 mL culture (5% haematocrit, 6–8% parasitaemia) of ring stage parasites (6–10 h post invasion) was treated with ML304 at 1 μM, 5 μM, and 10 μΜ, or the anti-malarial drugs ATS and CQ at approximately 4 × EC50. Prior to enrichment, cysteines were blocked with 2 mM NEM for 15 min at 37 °C. For 4 h and 24 h experiments, cells were washed after incubation and resuspended in Ringer’s solution (122.5 mM NaCl, 5.4 mM KCl, 1.2 mM CaCl2, 0.8 mM MgCl2, 11 mM D-glucose, 25 mM HEPES, 1 mM NaH2PO4, pH 7.4). 50 μL of cells (1.0 × 10^6 cells 50^−1 μL^−1) were seeded onto poly-L-lysine-coated μ-Slides 18 well (flat) (Ibidi, Martinsried, Germany) and measured using CLSM (confocal laser scanning microscopy) with excitation wavelengths at 405 nm and 488 nm. […] Each experiment was carried out three times. Between 10 and 20 microscopy images were taken each time, resulting in at least 30 experimental values per concentration and incubation time. The obtained ratio values were normalized to the control value, which was set to 100. All experiments were carried out within 6 weeks after the appearance of transfectants. Mean and standard error of the mean (SEM) are shown. A one-way ANOVA test with 95% confidence intervals with the Dunnett’s multiple comparison test (GraphPad Prism 5.0) was applied for statistical analysis of significance (*p < 0.05; **p < 0.01; ***p < 0.001).

The Ki is a measure of affinity in units of concentration, obtained from inhibition or displacement. The IC50 is the point on the concentration scale where inhibition reaches its midpoint.

Like-named read-outs stand apart in the source and are kept apart here.

PvG6PD, sequence (A5K3M1 entry or part of it): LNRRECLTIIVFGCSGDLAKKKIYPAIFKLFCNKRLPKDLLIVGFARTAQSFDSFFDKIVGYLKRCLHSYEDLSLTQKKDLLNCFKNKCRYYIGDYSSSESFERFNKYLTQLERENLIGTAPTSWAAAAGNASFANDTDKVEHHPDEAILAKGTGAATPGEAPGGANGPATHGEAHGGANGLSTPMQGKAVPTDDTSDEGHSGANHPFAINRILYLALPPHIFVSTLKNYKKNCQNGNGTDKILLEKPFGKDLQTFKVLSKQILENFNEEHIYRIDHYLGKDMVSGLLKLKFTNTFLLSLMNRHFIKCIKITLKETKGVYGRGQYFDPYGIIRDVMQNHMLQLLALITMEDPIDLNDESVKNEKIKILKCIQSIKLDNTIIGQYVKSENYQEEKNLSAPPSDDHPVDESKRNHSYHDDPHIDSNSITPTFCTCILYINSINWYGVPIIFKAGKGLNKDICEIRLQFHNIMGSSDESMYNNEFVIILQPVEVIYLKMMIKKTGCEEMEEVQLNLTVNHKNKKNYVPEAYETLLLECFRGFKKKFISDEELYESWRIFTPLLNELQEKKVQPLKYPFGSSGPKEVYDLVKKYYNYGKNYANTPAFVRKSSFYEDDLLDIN

Consider `CCN1CCC[C@@H]1CNC(=O)c1ccc2c(c1)NC(=O)c1cccc(C)c1S2` [ML304], for which the “Type of inhibition of PvG6PD towards G6P” value on PvG6PD (G6P titrated) is “competitive inhibitor”. Besides, the “Type of inhibition of PvG6PD towards NADP+” value on PvG6PD (NADP+ titrated) is recorded as “mixed type inhibitor”. The Ki at PvG6PD (competitive towards G6P, read-out: Ki on PvG6PD towards G6P) worked out at 0.7 ± 0.3 µM; on PvG6PD (mixed type towards NADP+, read-out: Ki on PvG6PD towards NADP+) it was 16.3 ± 8.8 µM. In addition, the IC50 on PvG6PD (substrate saturation (800 µM G6P, 200 µM NADP+)) amounted to 15.3 ± 0.9 µM; at PvG6PD (substrates close to KM (85 µM G6P, 15 µM NADP+)) it was 2.6 ± 0.8 µM. In addition, the “Oxidation of the hGrx1-roGFP2 sensor” value in assay [1] (5 µM, 24 h incubation) is recorded as “completely oxidize the sensor”; in assay [1] (50 µM, 4 h incubation), “completely oxidize the sensor”. For the same compound, the “Effect on 405/488 nm ratio of hGrx1-roGFP2” value in assay [1] (4 h incubation, trophozoites, 1, 50 and 100 µM (p < 0.05 at 1 µM, p < 0.001 at 50 and 100 µM)) was “significant effects”; in assay [1] (24 h incubation, ring stage (p < 0.05 at 1 µM, p < 0.001 at 50 µM and 100 µM as printed)) it was “significantly increased”.

(Values after article PMC6346587, “Glucose 6-phosphate dehydrogenase 6-phosphogluconolactonase: characterization of the Plasmodium vivax enzyme and inhibitor studies” (Malaria Journal, 2019).)
